Source: US11078185B2, “Mycobacterium tuberculosis—thioredoxin reductase inhibitor as an antitubercular agent” (Technische Universität Dortmund, priority 2017, dated 2021)
Values after ≈ are worked out from the molar mass of the structure shown. Values joined by “and” are separate entries in the source; they are usually repeats but may differ in a detail not shown here. Equal entries are not always repeated.

How the values were obtained:
[1] = format: in vitro ADME
Experimental: Selected compounds were investigated in terms of their permeability with the aid of the PAMPA assay (Parallel Artificial Membrane Permeation Assay). The permeability of the compounds across an artificial membrane of phospholipids was tested in a filter plate. Since a significant difference existed between the artificial membrane and the mycobacterial cell wall, the values should only be used as a measure to be able to evaluate the permeability of the compounds with respect to each other. For this purpose, the distribution between a donor and acceptor chamber without membrane was determined as the reference value (100% flux), in which the concentration of the compounds in the chambers was determined spectrophotometrically. Subsequently, the permeability of compounds 1, 8, 63 and 68 across the membrane used was determined. The PAMPA flux [%] value was 12.60 for compound 1, 29.70 for compound 8, 53.60 for compound 63, and 41.00 for compound 68.

[2] = biological target: MtTrxR (Mycobacterium tuberculosis thioredoxin reductase) (Mycobacterium tuberculosis, UniProt P9WHH1); test: MtTrxR activity assay according to Lu et al. (DTNB assay); format: biochemical; conditions: error range = standard deviation
Chain of MtTrxR (Mycobacterium tuberculosis thioredoxin reductase) (P9WHH1 whole entry): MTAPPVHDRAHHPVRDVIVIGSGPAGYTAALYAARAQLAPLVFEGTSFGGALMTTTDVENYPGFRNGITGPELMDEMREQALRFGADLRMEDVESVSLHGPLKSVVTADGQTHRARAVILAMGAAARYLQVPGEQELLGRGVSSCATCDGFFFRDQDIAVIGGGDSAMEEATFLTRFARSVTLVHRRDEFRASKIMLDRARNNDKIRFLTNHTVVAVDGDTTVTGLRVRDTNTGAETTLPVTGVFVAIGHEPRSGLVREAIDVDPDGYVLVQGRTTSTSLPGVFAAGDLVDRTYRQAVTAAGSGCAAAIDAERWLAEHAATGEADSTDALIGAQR
Experimental: The compounds according to the invention show good inhibitory activity towards MtTrxR. In a preferred embodiment, the compounds according to the invention have an IC50 value according to Lu et al. from 0.10 to 10.00 μM. Methods for determining the IC50 value according to Lu et al. are known to those skilled in the art. Reference is made in this respect to J. Lu, A. Vlamis-Gardikas, K. Kandasamy, R. Zhao, T. N. Gustafsson, L. Engstrand, S. Hoffner, L. Engman, A. Holmgren, FASEB J. 2013, 27, 1394-1403.
(§1) A biochemical evaluation of the inhibitory activity (i.e. the IC50 value) of the compounds obtained towards MtTrxR by means of an activity assay according to Lu et al. (error range indicated by the standard deviation) was conducted. The testing of the potential inhibitors against MtTrxR was performed according to the description of Lu et al. Furthermore, MIC50 values (generic minimum inhibitory concentration) of certain compounds were measured with the BD BACTEC™ MGIT™ system: […]

[3] = test system: Mycobacterium tuberculosis; test: MIC50 measured with the BD BACTEC MGIT system; format: cell-based; conditions: read-out: MIC50 [μM] (μG/mL)
Experimental: as §1

[4] = test system: Mycobacterium tuberculosis; test: Antimycobacterial activity (FIG. 1); format: cell-based
From the text: FIG. 1 is directed to the antimycobacterial activity of compounds 2, 8 and 68 according to the invention.

human macrophages = format: cell-based
From the text: FIG. 3 is directed to the cytotoxic activity of compound 68 according to the invention against human macrophages.

[5] = test system: Mycobacterium tuberculosis strain H37Rv in infected human macrophages; test: Antimycobacterial activity in infected human macrophages (FIG. 2); format: cell-based
From the text: FIG. 2 is directed to the antimycobacterial activity of compound 68 according to the invention against Mycobacterium tuberculosis strain H37Rv in infected human macrophages.

SMILES | PAMPA flux [%] [1] [%] | IC50 [2] | MIC50 [3] [µM] | antimycobacterial activity [4] | cytotoxicity towards macrophages (human macrophages) | antimycobacterial activity in infected human macrophages [5]
COc1ccc2nc(C)cc(Nc3ccc(O)cc3)c2c1 [Compound 1, 4-((6-Methoxy-2-methylquinolin-4-yl)amino)phenol, reference compound] | 12.60 | 11.5 ± 1.52 µM | – | – | – | –
COc1ccc2nc(C)cc(Nc3ccc(S(=O)(=O)c4ccc(Nc5ccncc5)cc4)cc3)c2c1 [Compound 2, 6-methoxy-2-methyl-N-(4-((4-(pyridin-4-ylamino)phenyl)sulfonyl)phenyl)quinolin-4-amine] | – | 0.25 ± 0.04 µM | 8 to 32 (≈ 3.97 to 15.9 µg/mL) | concentration-dependent antimycobacterial activity | – | –
COc1ccc2nc(C)cc(Nc3ccc(Cc4ccc(N)cc4)cc3)c2c1 [Compound 8, N-(4-(4-aminobenzyl)phenyl)-6-methoxy-2-methylquinolin-4-amine] | 29.70 | 1.8 µM | 4 to 8 (≈ 1.48 to 2.96 µg/mL) | concentration-dependent antimycobacterial activity | – | –
COc1ccc2nc(C)cc(Nc3ccc(S(=O)(=O)c4ccc(N)cc4)cc3)c2c1 [Compound 9, N-(4-((4-aminophenyl)sulfonyl)phenyl)-6-methoxy-2-methylquinolin-4-amine] | – | 5.21 ± 0.24 µM | – | – | – | –
COc1ccc2nc(C)cc(Nc3ccc(S(=O)(=O)c4ccc(NC(C)=O)cc4)cc3)c2c1 [Compound 10, N-(4-((4-((6-methoxy-2-methylquinolin-4-yl)amino)phenyl)sulfonyl)phenyl)acetamide] | – | 3.59 ± 1.95 µM | – | – | – | –
COc1ccc2nc(C)cc(Nc3ccc(S(=O)(=O)c4ccc(Nc5ccncn5)cc4)cc3)c2c1 [Compound 24, 6-methoxy-2-methyl-N-(4-((4-(pyrimidin-4-yl-amino)phenyl)sulfonyl)phenyl)quinolin-4-amine] | – | 0.51 ± 0.04 µM | 8 to 32 (≈ 3.98 to 15.9 µg/mL) | – | – | –
COc1ccc2nc(C)cc(Nc3ccc(S(=O)(=O)c4ccc(Nc5cc(C(C)(C)C)n[nH]5)cc4)cc3)c2c1 [Compound 25, N-(4-((4-((3-(tert-butyl)-1H-pyrazol-5-yl)amino)phenyl)sulfonyl)phenyl)-6methoxy-2-methylquinolin-4-amine] | – | 9.1 ± 0.3 µM | – | – | – | –
COc1ccc(Nc2ccc(S(=O)(=O)c3ccc(Nc4cc(C)nc5ccc(OC)cc45)cc3)cc2)cc1 [Compound 26, 6-methoxy-N-(4-((4-((4-methoxyphenyl)amino)phenyl)sulfonyl)phenyl)-2-methylquinolin-4-amine] | – | 1.9 ± 0.8 µM | 8 to 32 (≈ 4.21 to 16.8 µg/mL) | – | – | –
COC(=O)c1ccc(Nc2ccc(S(=O)(=O)c3ccc(Nc4cc(C)nc5ccc(OC)cc45)cc3)cc2)cc1 [Compound 27, methyl-4-((4-((4-((6-methoxy-2-methylquinolin-4-yl)amino)phenyl)sulfonyl)phenyl)amino) benzoate] | – | 4.8 ± 1.6 µM | – | – | – | –
COc1ccc2nc(C)cc(Nc3ccc(C(=O)c4ccc(Nc5ccncc5)cc4)cc3)c2c1 [Compound 45, (4-((6-methoxy-2-methylquinolin-4-yl)amino)phenyl)(4-(pyridin-4-yl-amino)phenyl)methanone] | – | 1.04 ± 0.2 µM | > 32 | – | – | –
COc1ccc2nc(C)cc(Nc3ccc(Cc4ccc(Nc5ccncc5)cc4)cc3)c2c1 [Compound 63, 6-methoxy-2-methyl-N-(4-(4-(pyridin-4-ylamino)benzyl)phenyl)quinolin-4-amine] | 53.60 | 5.64 µM and 4.7 µM | 8 to 32 (≈ 3.57 to 14.3 µg/mL) | – | – | –
COc1ccc2nc(C)cc(Nc3ccc(Cc4ccc(Nc5ccncn5)cc4)cc3)c2c1 [Compound 68, 6-methoxy-2-methyl-N-(4-(4-(pyrimidin-4-ylamino)benzyl)phenyl)quinolin-4-amine] | 41.00 | 2.03 µM and 1.7 µM | 2 to 8 (≈ 0.895 to 3.58 µg/mL) | concentration-dependent antimycobacterial activity | without being toxic | concentration-dependent antimycobacterial activity
